From patent US20220347299A1, “FLUORESCENT SYSTEMS FOR BIOLOGICAL IMAGING AND USES THEREOF” (LIGHTOX LIMITED, priority 2019, published 2022)

Tests used:
[1] = tested on: HaCaT keratinocytes; assay: Co-staining with organelle markers, co-localisation (PCC); format: cell-based; settings: 1 μM compound, 30 minutes, BODIPY ER-Tracker Red
Experimental: To study the localisation of compounds in biological cells, co-staining of compounds of formula I with specific organelle markers (fluorescent dyes and antibodies) within biological cells was conducted. The following compounds were studied: compounds 6, 7, 12, 13, 14 and 15. HaCaT keratinocyte cell lines were used for the following experimental procedures. The cells were incubated in cell culture media (94% Dulbecco's Modified Eagle Medium (DMEM), 5% Foetal Bovine Serum (FBS) and 1% Penicillin Streptomycin solution (Pen-Strep). The cells were plated in 8-well plates, at a concentration of 25,000 cells per ml. 200 μl of cell suspension was added to each well, and the cells were incubated for 2 days before staining and imaging was carried out. In order to visualise the mitochondria, cells were probed with the mitochondrial dye MitoTracker® Deep Red. Cells to be stained were incubated with 200 μl MitoTracker® Deep Red solution (200 nM MitoTracker® and 1 μM Formula I compound in cell culture media) per well (N=3) for 30 minutes. Nile Red was used to identify lipids within the cells. 200 μl Nile Red Lipophilic dye (10 μg/ml Nile Red and 1 μM Formula I compound in cell culture media) was added to each well (N=3) and incubated for 30 minutes. For the detection of lysosomes within the cells, LysoTracker® Red DND-99 dye was used. 200 μl LysoTracker® Red DND-99 (50 nM LysoTracker® and 1 μM Formula I compound solution in cell culture media) was added to each well (N=3) and incubated for 30 minutes. For visualisation of the endoplasmic reticulum (ER), cells were stained with BODIPY® ER-Tracker® Red. 200 μl BODIPY ER-Tracker® Red (1 μM BODIPY® and 1 μM Formula I compound solution in cell culture media) was added to each well (N=3) and incubated for 30 minutes. Following incubation, the cell culture media containing dye was removed, and cells were washed twice with 200 μl phosphate buffered saline (PBS). After washing, 200 μl PBS was added into each well for imaging. For visualisation of the nuclear lamina, cells were probed with an anti-lamin A/C antibody. The cells were plated on 22×22 mm cover slips (10,000 cells/ml) and incubated for 2 days before staining. The cells were washed with PBS to remove excess media before staining. The cells were fixed with 4% paraformaldehyde (PFA) for 10 minutes at room temperature, before being washed twice in PBS for 5 minutes. Following washing, the cells were permeabilised in 0.4% Triton X-100 in PBS for 10 minutes. The cells were subsequently washed three times in PBS for 5 minutes, before being incubated in blocking buffer (1% BSA, 0.1% fish gelatine and 0.1% Triton X-100 in PBS) for 15 minutes at room temperature. The cells were incubated in primary antibody (mouse anti-lamin A/C IgG in blocking buffer) for 1 hour at room temperature. The cells were then washed twice in blocking buffer and incubated in secondary antibody (anti-mouse Alexa-594 IgG in blocking buffer) for 30 minutes at room temperature. Cells were washed twice in PBS for 10 minutes at room temperature. For cell staining with compounds of formula I, 5 μM of the compound of formula I in PBS was added to the cells for 30 minutes at room temperature. Cells were then washed five times for 5 minutes in PBS. Following washing, the cells were mounted onto non-charged microscopy slides using 6 μl Mowiol® per cover slip as mounting media. A Zeiss 880 confocal microscope was used for all the imaging work. [table] Image) Coloc2 software was used to calculate co-localization statistics between the compounds of formula I and the organelle marker images. The background was subtracted from each image and a region of interest (ROI) was used to target the analysis. The point spread function (PSF) of each image was calculated as 2.0 and Coastes' iterations was set to 100. The statistic quantified was the Pearson's Correlation Coefficient (PCC). PCC gives a number ranging from +1 to −1:1=perfect co-localisation; 0=no relationship; and, −1=perfect anti-co-localisation. […]

[2] = tested on: black-grass cells; assay: Cytotoxicity assay (FDA/PI) in black-grass cell suspension culture; format: cell-based
Experimental: 5 mL of black-grass cell suspension culture was treated with 0.1, 1, 5, and 10 μM of compound numbers 7, 14, 12 and 15 for 1 hour at room temperature. Cells treated with 0.1% DMSO were used as a control. Cells were irradiated (˜365 nm) for 5 minutes before being incubated at 25° C., 150 rpm for 24 hours. In addition, the cytotoxicity of the compounds without irradiation was also assessed. Cell viability of five biological replicates for each concentration were determined via fluorescence assay (FDA/PI) assay. Percentage of cell viability was calculated using following formulation:
% viability={live cells (FDA)/(live cells+dead cells)}×100
The statistical analysis of percentage of cell viability was performed through one-way analysis of variance (ANOVA) followed by Tukey HSD posthoc test using SPSS 23 (IBM, Chicago, Ill., USA).

[3] = Peak absorption and fluorescence emission wavelengths in solvents; format: physicochemical; settings: for λem(max)/nm: 100 nM, excitation at peak of absorption; for λabs(max)/nm: 10 μM
Experimental: Peak absorption and fluorescence emission wavelengths of compounds 6, 7, 12, 13, 14, 15, 19, 23, 27, 30 and 34 were measured in a variety of solvents, and the results are shown in Table 1. Absorption measurements were recorded at a concentration of 10 μM, and emission measurements were recorded at a concentration of 100 nM. Emission spectra were recorded with excitation at the peak of absorption (S0→S1).

[4] = Photophysical comparison of para- and ortho-substituted compounds in chloroform; format: physicochemical; settings: for excitation by 405 nm violet excitation laser light source (absorption at this wavelength): Chloroform
Experimental: To compare the photophysical behaviour of para-substituted compounds of the invention with ortho-substituted compounds, compound 73 and reference compound 77 were synthesised in accordance with Example 1:
Solutions of compounds 73 and 77 were prepared at concentrations of 10 μM and 100 nM in chloroform. The absorption spectra of each compound (10 μM) was recorded using a CARY100 UV-Visible spectrometer, from 200-800 nm, and is shown in FIG. 3a after solvent background subtraction. […] Also shown in FIG. 3a is the approximate bandwidth of a 405 nm violet excitation laser light source that is commonplace on fluorescence microscopes used for cellular imaging studies.
To assess this effect and to compare the fluorescence emission properties of 73 and 77, solutions of both compounds in chloroform (100 nM) were excited at both 360 nm and 405 nm. At 360 nm excitation, 73 and 77 were excited with high efficiency since this wavelength is close to the absorption maxima of both compounds.
Both compounds were also excited at 405 nm to compare their respective suitabilities towards imaging using a typical fluorescence microscope.

[5] = 0.1, 1, 5, 10 μM, with and without ~365 nm irradiation 5 minutes, 24 hours

In the case of `COC(=O)/C=C/c1ccc(C#Cc2ccc(N(C)CCNS(=O)(=O)c3ccc(C)cc3)cc2)cc1` [Compound 15, methyl (2E)-3-{4-[2-(4-{methyl[2-(4-methylbenzenesulfonamido)ethyl]amino}phenyl)ethynyl]phenyl}prop-2-enoate], the “average PCC Value with BODIPY ER-Tracker” value [1] is reported as 0.30, the black-grass cell viability [2, 5] is reported as “did not reduce black-grass cell viability regardless of concentration or irradiation treatment” and the “λem(max)/nm” value ([3]; DCM) is reported as 545 nm. For the same molecule, the “λabs(max)/nm” value ([3]; DCM) was 377 nm, the “λem(max)/nm” value ([3]; Toluene) was 473 nm and the “λabs(max)/nm” value ([3]; Toluene) was 381 nm.
For `COC(=O)/C=C/c1ccc(C#Cc2ccc(N3CCN(C(C)=O)CC3)cc2)cc1` [Compound 13, methyl (2E)-3-(4-{2-[4-(4-acetylpiperazin-1-yl)phenyl]ethynyl}phenyl) prop-2-enoate], the “average PCC Value with BODIPY ER-Tracker” value [1] was −0.18, the “λem(max)/nm” value ([3]; DCM) was 547 nm and the “λabs(max)/nm” value ([3]; DCM) was 361 nm. For the same molecule, the “λem(max)/nm” value ([3]; Toluene) was 464 nm and the “λabs(max)/nm” value ([3]; Toluene) was 358 nm.
For `CC(C)(C)OC(=O)/C=C/c1ccc(C#Cc2ccc(N3CCNCC3)cc2)s1` [Compound 27, tert-butyl (2E)-3-(5-{2-[4-(piperazin-1-yl)phenyl]ethynyl}thiophen-2-yl) prop-2-enoate], the “λem(max)/nm” value ([3]; DCM) was 524 nm, the “λabs(max)/nm” value ([3]; DCM) was 371 nm and the “λem(max)/nm” value ([3]; Toluene) was 493 nm. For the same molecule, the “λabs(max)/nm” value ([3]; Toluene) was 380 nm.
For `COC(=O)/C=C/c1ccc(C#Cc2ccc(N3CCC3)cc2)cc1` [Compound 30, methyl (2E)-3-(4-{2-[4-(azetidin-1-yl)phenyl]ethynyl}phenyl)prop-2-enoate], the “λem(max)/nm” value ([3]; Chloroform) was 535 nm and the “λabs(max)/nm” value ([3]; Chloroform) was 374 nm.
With `COC(=O)/C=C/c1ccc(C#Cc2ccc(N3CCN(CCC[P+](c4ccccc4)(c4ccccc4)c4ccccc4)CC3)cc2)cc1.[Br-]` [Compound 14, (3-{4-[4-(2-{4-[(1E)-3-methoxy-3-oxoprop-1-en-1-yl]phenyl}ethynyl)phenyl]piperazin-1-yl}propyl)triphenylphosphonium bromide] the “average PCC Value with BODIPY ER-Tracker” value [1] was 0.68, the black-grass cell viability ([2]; 1 μM, also in non-irradiation treatment) was “significantly reduced” and the “dependence of cytotoxic effect on irradiation” value ([2]; black-grass cells, ~365 nm, 5 minutes) was “independent of irradiation”. For the same molecule, the “λem(max)/nm” value ([3]; DCM) was 531 nm, the “λabs(max)/nm” value ([3]; DCM) was 361 nm and the “λem(max)/nm” value ([3]; Toluene) was 506 nm. For the same molecule, the “λabs(max)/nm” value ([3]; Toluene) was 367 nm.
In the case of `O=C1/C(=C/c2ccc(C#Cc3ccc(N4CCNCC4)cc3)cc2)N=C(c2ccccc2)N1CCN1CCOCC1` [Compound 23, (4Z)-1-[2-(morpholin-4-yl)ethyl]-2-phenyl-4-[(4-{2-[4-(piperazin-1-yl)phenyl]ethynyl}phenyl)methylidene]-4,5-dihydro-1H-imidazol-5-one], the “λem(max)/nm” value ([3]; Chloroform) is reported as 616 nm and the “λabs(max)/nm” value ([3]; Chloroform) is reported as 424 nm.
In the case of `NCCN1C(=O)/C(=C/c2ccc(C#Cc3ccc(N4CCC4)cc3)cc2)N=C1c1ccccc1` [Compound 34, (4Z)-1-(2-aminoethyl)-4-[(4-{2-[4-(azetidin-1-yl)phenyl]ethynyl}phenyl)methylidene]-2-phenyl-4,5-dihydro-1H-imidazol-5-one], the “λem(max)/nm” value ([3]; Chloroform) is reported as 628 nm and the “λabs(max)/nm” value ([3]; Chloroform) is reported as 432 nm.
In the case of `COCCN1C(=O)/C(=C/c2ccc(C#Cc3ccc(N4CCNCC4)cc3)cc2)N=C1C` [Compound 19, (4Z)-1-(2-methoxyethyl)-2-methyl-4-[(4-{2-[4-(piperazin-1-yl)phenyl]ethynyl}phenyl)methylidene]-4,5-dihydro-1H-imidazol-5-one], the “λem(max)/nm” value ([3]; Chloroform) is reported as 584 nm, the “λabs(max)/nm” value ([3]; Chloroform) is reported as 403 nm and the “λabs(max)/nm” value ([3]; MeOH) is reported as 395 nm. The “λem(max)/nm” value ([3]; Toluene) was 515 nm and the “λabs(max)/nm” value ([3]; Toluene) was 403 nm.
With `COC(=O)/C=C/c1ccc(C#Cc2ccc(N3CCNCC3)cc2)cc1` [Compound 7, methyl (2E)-3-(4-{2-[4-(piperazin-1-yl)phenyl]ethynyl}phenyl)prop-2-enoate] the “average PCC Value with BODIPY ER-Tracker” value [1] was 0.32, the black-grass cell viability [2, 5] was “did not reduce black-grass cell viability regardless of concentration or irradiation treatment” and the “λem(max)/nm” value ([3]; DCM) was 563 nm. The “λabs(max)/nm” value ([3]; DCM) was 362 nm, the “λem(max)/nm” value ([3]; Toluene) was 504 nm and the “λabs(max)/nm” value ([3]; Toluene) was 361 nm.
For `COC(=O)/C=C/c1ccc(C#Cc2ccc(N3CCN(C)CC3)cc2)cn1` [Compound 73, methyl (2E)-3-(5-{2-[4-(4-methylpiperazin-1-yl)phenyl]ethynyl}pyridin-2-yl)prop-2-enoate], the “excitation by 405 nm violet excitation laser light source (absorption at this wavelength)” value ([4]; 10 μM) was “capable of efficient excitation”, the “fluorescence emission at 360 nm excitation, compared to the other compound” value ([4]; chloroform, 100 nM) was “substantially stronger fluorescence emission” and the “fluorescence emission at 405 nm excitation” value ([4]; chloroform, 100 nM) was “of a similar intensity to excitation at 360 nm”. The “shift of fluorescence emission compared to compound 77” value ([4]; chloroform, 100 nM, 360 nm excitation) was “significant bathochromic shift”.
With `COC(=O)/C=C/c1ccc(C#Cc2ccccc2N2CCN(C)CC2)cn1` [Compound 77, methyl (2E)-3-(5-{2-[2-(4-methylpiperazin-1-yl)phenyl]ethynyl}pyridin-2-yl)prop-2-enoate, reference compound] the “excitation by 405 nm violet excitation laser light source (absorption at this wavelength)” value ([4]; 10 μM) was “absorbed only very weakly”, the “fluorescence emission at 405 nm excitation” value ([4]; chloroform, 100 nM) was “only very weak fluorescence emission” and the “absorption spectrum, ortho-position 77 relative to para-position 73” value ([4]; chloroform, 10 μM, 200-800 nm) was “substantial hypsochromic shift and reduction in extinction coefficient”.
